For assay [1], the target named is bacteriophage λ Integrase (Int) (Escherichia phage lambda, UniProt P03700). Nature of the assay: Int-mediated excisive recombination. It counts as biochemical. The following applies: for IC50: IC50, inhibition of excisive recombination, excision pathway. As for the experimental part:
FIG. 11 depicts effect of peptide KWWCRW (diamonds) and peptide KWWWRW (squares) on the remaining 3 pathways of Int-mediated recombination. Recombination extents were normalized to the amount of recombination in untreated reactions and expressed as relative % recombination. A. Effect of peptides on integrative recombination (IC50 values for both peptides are roughly 0.2 μM). Reactions were assembled as for bent-L recombination except that they were incubated at room temperature, the substrates were a supercoiled plasmid (4.8 kb) carrying attP and ^32P labeled 91 bp PCR fragment encoding attB. […] The recombination substrates were PCR fragments encoding the attL (^32P-labeled) and attR sites. Reactions contained 50 NM Xis in addition to Int and IHF (37 nM), as well as 100 ng salmon sperm DNA, and were incubated at room temperature. C. Effect of peptides on straight-L recombination (IC50 values for peptide KWWCRW is 0.06 μM, while for peptide KWWWRW is slightly over 0.1 μM). Reactions were assembled as for bent-L recombination except that they were incubated at room temperature; the substrates were two PCR fragments, one of which was ^32P-labeled and 187 bp, the other of which was unlabeled and 496 bp.
Int Assays. Site-specific recombination and gel mobility shift assays were performed as described (Segall, 1998). Briefly, reactions were performed in a total volume of 10 or 20 μl and typically contained 1-2 nM radiolabeled att site as specified, 4 nM unlabeled att site, 100-300 ng salmon sperm DNA as nonspecific competitor, 44 mM Tris-Ci (pH 8.0), 60 mM KCl, 0.05 mg/ml bovine serum albumin, 7 mM Tris borate (pH 8.9), 5 mM spermidine, 1.3 mM EDTA, and 14.6% v/v glycerol. […] Dried gels were visualized and quantitated using a Molecular Dynamics PhosphorImager.
Excision reactions: Reactions were performed in 10 μL volume containing 20 mM Tris-HCl pH 8, 5 mM spermidine, 0.2 μg BSA, 75 ng to 0.15 μg salmon sperm DNA, 30 mM KCl, and TE (recombination mix). […] All gel images were visualized with a PhosphorImager (Molecular Dynamics) and quantitated with ImageQuant software (Molecular Dynamics).

The next assay deals with double-stranded DNA. Nature of the assay: Peptide binding to DNA (electrophoretic mobility shift). An excerpt:
Do peptides KWWCRW and KWWWRW inhibit recombination by interfering with the formation of higher order complexes? The formation of intermediates in the bent-L pathway depends on Int contacting two different types of sites, the higher affinity arm sites and the lower affinity core sites flanking the loci of DNA cleavage and strand exchange (FIG. 9). […] To determine the effect of KWWCRW on interactions of Int with its core binding sites, we assembled the recombination complexes, known as intasomes or unimolecular complexes (UMC), on an attL variant substrate with 4 mutations in the IHF binding site, collectively known as QH′. These mutations prevent the specific binding of IHF to the QH′ sequence (Gardner and Nash, 1986), but still allow IHF to bind and bend DNA nonspecifically (Segall et al., 1994). […] We next tested the assembly of bent-L pathway intermediates. At 10 μM peptide, all of the labeled DNA was shifted into the well. However, at lower peptide concentrations that still inhibited recombination (0.1-1 μM), intermediates were assembled normally. In fact, one of the intermediates, the bimolecular complex (BMC), accumulates substantially in the presence of the peptide (see also FIG. 12). […] This agrees perfectly with our observations that suboptimal concentrations of peptide lead to accumulation of Holliday junctions (FIG. 10). […] The peptide shifts att site DNA even in the complete absence of Int (data not shown), confirming that KWWCRW interacts with DNA in a concentration-dependent fashion and in a manner that affects the mobility of the DNA much more drastically than expected for the size of the peptides.
Int Assays. Site-specific recombination and gel mobility shift assays were performed as described (Segall, 1998). Briefly, reactions were performed in a total volume of 10 or 20 μl and typically contained 1-2 nM radiolabeled att site as specified, 4 nM unlabeled att site, 100-300 ng salmon sperm DNA as nonspecific competitor, 44 mM Tris-Ci (pH 8.0), 60 mM KCl, 0.05 mg/ml bovine serum albumin, 7 mM Tris borate (pH 8.9), 5 mM spermidine, 1.3 mM EDTA, and 14.6% v/v glycerol. Any deviation from this formulation is noted in the figure legends. Gel shift reactions were incubated for 90 minutes at 37° C., layered without loading dyes onto 5% native polyacrylamide gel (29 acrylamide: 1 bis-acrylamide) and electrophoresed in 0.5× Tris borate EDTA buffer. Recombination reactions were stopped with 0.2× volume of 2% SDS, layered onto 5% polyacrylamide Tris/SDS gels, and electrophoresed in 1× Tris Tricine SDS buffer at 100 mA (Segall, 1998). Dried gels were visualized and quantitated using a Molecular Dynamics PhosphorImager.
Background: Mobility shift assays separate free from complexed probe on a gel.

Where “and” joins values, the source holds several entries; their conditions need not be identical. Equal entries are not always repeated. Entries after “also recorded” stand apart in the source; their conditions may differ. Where no end group is shown, it is not given here.

Usually IC50 stands for the point on the concentration scale where inhibition reaches its midpoint. By EC50 is commonly meant the concentration that produces a half-maximal response.

Chain of bacteriophage λ Integrase (Int) (P03700 whole entry, the tested form may be a part): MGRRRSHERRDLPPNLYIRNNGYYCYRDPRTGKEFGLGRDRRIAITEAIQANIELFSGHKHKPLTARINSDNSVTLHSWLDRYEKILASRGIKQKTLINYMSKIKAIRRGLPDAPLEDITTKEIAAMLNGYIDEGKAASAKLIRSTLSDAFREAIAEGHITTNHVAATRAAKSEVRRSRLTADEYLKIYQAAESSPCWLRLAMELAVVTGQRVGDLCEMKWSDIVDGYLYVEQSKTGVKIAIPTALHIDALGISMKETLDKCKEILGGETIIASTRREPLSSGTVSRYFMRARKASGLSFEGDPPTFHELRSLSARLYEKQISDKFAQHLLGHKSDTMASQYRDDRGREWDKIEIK
Chain of bacteriophage λ Integrase (Int) (P0A6X7 whole entry partner, the tested form may be a part): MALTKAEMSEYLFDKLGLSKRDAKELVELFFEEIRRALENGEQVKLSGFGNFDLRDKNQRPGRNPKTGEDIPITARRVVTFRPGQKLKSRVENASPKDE
Chain of bacteriophage λ Integrase (Int) (P0A6Y1 whole entry partner, the tested form may be a part): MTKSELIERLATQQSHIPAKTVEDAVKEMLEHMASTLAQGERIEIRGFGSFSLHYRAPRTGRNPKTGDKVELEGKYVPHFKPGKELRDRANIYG
Chain of bacteriophage λ Integrase (Int) (P03699 whole entry partner, the tested form may be a part): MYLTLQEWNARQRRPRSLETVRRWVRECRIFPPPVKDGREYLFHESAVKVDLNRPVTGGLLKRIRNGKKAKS

On to KWWCRW-NH2 [Peptide 59, KWWCRW], for which the IC50 in assay [1] was 1.1 µM and ~1.1 µM. The “binding to DNA” value in the assay with double-stranded DNA is recorded as “appear to bind to DNA; also recorded: binds double stranded DNA by itself”. Further, the “peptide concentration that shifts the mobility of double-stranded DNA” value with double-stranded DNA (reactions with at least 50 ng salmon sperm DNA) was at least 5 µM.

For KWWWRW-NH2 [Peptide 56, KWWWRW], the concentration for half-maximal inhibition (IC50) in assay [1] is about 1.1 µM. Besides, the “binding to DNA” value in the assay with double-stranded DNA is given as “appear to bind to DNA”.

For the substance WKHYNY-NH2 [Peptide 52, WKHYNY], in assay [1], the concentration for a half-maximal effect (EC50) lay in the range of 10 to 20 µM. Also, in the assay on double-stranded DNA, the “binding to DNA” value was “do not bind double-stranded DNA”.

Values taken from US20040002441A1, “Recombination modulators and methods for producing and using the same” (priority 2000, published 2004).
